Measurements taken from paper PMC2915928 (Bioorganic & medicinal chemistry, 2009).
Where two headings read alike, the source gives them in different places.

Assays:
[1] = human liver microsomes
[2] = target: T1, nociceptin (NOP) receptor (Homo sapiens, UniProt P41146); assay: Inhibition of basal [35S]GTPγS binding; assay type: biochemical; conditions: read-out: NOP Emax, inhibition of basal [35S]GTPγS binding
[3] = target: T1, nociceptin (NOP) receptor; assay: biochemical; conditions: read-out: NOP Emax, stimulation of [35S]GTPγS binding
μ-opioid receptor [4] = target: T2, μ-opioid receptor (Mus musculus, UniProt P42866); assay: biochemical; conditions: read-out: μ Emax, stimulation of [35S]GTPγS binding
T2 sequence (P42866 whole entry): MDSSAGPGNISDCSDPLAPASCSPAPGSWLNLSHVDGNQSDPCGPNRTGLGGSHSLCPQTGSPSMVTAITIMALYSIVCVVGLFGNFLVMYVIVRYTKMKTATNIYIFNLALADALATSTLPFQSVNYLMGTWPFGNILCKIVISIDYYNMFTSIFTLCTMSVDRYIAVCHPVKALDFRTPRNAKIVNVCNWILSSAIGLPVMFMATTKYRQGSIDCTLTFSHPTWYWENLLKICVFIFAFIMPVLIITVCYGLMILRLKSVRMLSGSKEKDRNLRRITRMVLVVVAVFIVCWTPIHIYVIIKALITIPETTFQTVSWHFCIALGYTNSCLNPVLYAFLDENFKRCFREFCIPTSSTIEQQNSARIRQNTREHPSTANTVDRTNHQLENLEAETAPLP

μ-opioid receptor [5] = target: T2, μ-opioid receptor
μ-opioid receptor [6] = target: T2, μ-opioid receptor; assay: biochemical; conditions: read-out: μ Emax, inhibition of basal [35S]GTPγS binding

T1 sequence (P41146 whole entry): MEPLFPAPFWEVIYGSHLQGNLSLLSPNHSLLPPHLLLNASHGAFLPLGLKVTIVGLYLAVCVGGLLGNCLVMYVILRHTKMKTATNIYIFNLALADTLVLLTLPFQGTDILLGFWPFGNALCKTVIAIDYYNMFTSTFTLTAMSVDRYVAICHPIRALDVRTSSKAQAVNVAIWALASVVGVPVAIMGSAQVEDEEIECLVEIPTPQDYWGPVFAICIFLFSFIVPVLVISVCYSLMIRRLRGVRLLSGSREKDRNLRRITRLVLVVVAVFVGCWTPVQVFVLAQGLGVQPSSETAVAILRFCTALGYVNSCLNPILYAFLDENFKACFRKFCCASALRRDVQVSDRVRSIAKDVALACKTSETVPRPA

Structure (SMILES): O=C(N[C@@H]1CC[C@@]2(O)[C@H]3Cc4ccc(O)c5c4[C@@]2(CCN3CC2CC2)[C@H]1O5)c1ccc(Br)cc1.O=C(O)C(=O)O [Compound 6, 17-Cyclopropylmethyl-3,14β-dihydroxy-4,5α-epoxy-6β-[(4′-bromo)benzamido] morphinan]
- Change of N-oxide formation rate upon going from pH 7.4 to pH 10 [1]: doubled

Structure (SMILES): O=C(N[C@@H]1CC[C@@]2(O)[C@H]3Cc4ccc(O)c5c4[C@@]2(CCN3CC2CC2)[C@H]1O5)c1ccc(Cl)c(Cl)c1.O=C(O)C(=O)O [Compound 9]
- Emax [2]: 87 ± 6.9%
- Emax [3]: 0%
- Emax (μ-opioid receptor [4]): 80 to 85%
- μ Emax, stimulation of [35S]GTPγS binding (μ-opioid receptor [5]): 85 ± 7.4%
- Emax (μ-opioid receptor [6]): 0%
